According to patent publication US5889018A, “Heterocyclic compounds, pharmaceutical compositions comprising them and process for the preparation thereof” (Egis Gyogyszergyar RT., priority 1994, dated 1999):
Where two headings read alike, the source gives them in different places.

Tests used:
Male Wistar rats = assay: Vogel Test (Lick Conflict Test), anxiolytic activity; format: in vivo; conditions: Rattus norvegicus, po, 1 h, p.o., one hour before testing, read-out: Minimum effective dose (mg/kg, p.o.)
Method: 1. Vogel Test (Lick Conflict Test)
Male Wistar rats of 160 to 180 g body weight were kept free of food and drinking water for 24 and 48 hours, respectively. The test and carrier substances (0.4% methyl-cellulose) were administered orally one hour before testing. Groups consisting of 8 animals were used. The rats within the experimental chamber were provided with drinking water through an inserted tube. After the animals' each twenty lapping for water the device emitted a 1.4 mA intensity electric shock through the drinking tube. During 5 minutes the shocks tolerated by the animals in order to quench their thirst were counted. The effect of treatment was expressed as the % increase of the tolerated shocks. The minimum effective dose (MED) was determined for each test compound (Vogel, J. R., Beer, B., Clody, D. E.: Psycho-pharmacologia (Berl.) 21, 1 /1971/).

[1] = tested on: Male rats belonging to the Sprague Dawley strain; assay: Elevated Plus Maze Test on Rat, anxiolytic activity; format: in vivo; conditions: for minimal effective dose: Rattus norvegicus, po, 1 h, p.o., 60 minutes pretreatment, significant increase of time spent on the open arms, Sprague Dawley rats, read-out: Minimum effective dose (mg/kg, p.o.)
Method: 1.2 Elevated Plus Maze Test on Rat
The test was carried out with the aid of a wooden plus-shaped maze elevated to a height of 50 cm. Two arms (100 cm long and 15 cm wide)--opposite to one another--were enclosed up to a height of 40 cm along their longer sides and at the end. The other two arms were without walls (open arms). The central 15×15 cm part was open. Male rats belonging to the Sprague Dawley strain and weighing 220 to 260 g were used as test animals. After pretreatment lasting 60 minutes the animals were placed into the central part of the maze. During the 5 minutes observation period the following parameters were recorded: […]
time spent on the open arms time spent on the closed arms number of open arm entries number of closed arm entries.
The drug effect was expressed as percent increase of the time spent on the open arms and number of open arm entries. The minimum effective dose which caused a significant increase of the time spent on the open arms was calculated for every substance [Pelow, S., Chopin, P., File, S. E., Briley, M.: J. Neurocsi. Methods 14, 149-167 (1985)].

[2] = tested on: Male Wistar rats (Charles River); assay: Hole-Board Test, head-dipping activity; format: in vivo; conditions: Rattus norvegicus, po, 1 h, p.o., one hour before testing, from head-dipping activity, read-out: Minimum effective dose (mg/kg, p.o.)
Method: The experiment was carried out according to a slightly modified method of File [File, S. E., Wardill, A. G., Psychopharmacologia, 44, 53-59, (1975)]. Male Wistar rats (Charles River) weighing 160-200 g were fasted for 24 hours prior to the experiment. They were treated orally in a volume of 5 ml/kg one hour before testing, a treated group consisted of 12 animals. The test compounds were suspended in 0,4 methylcellulose solution, the control group was treated with methylcellulose. All procedures were carried out in a quiet, air-conditioned laboratory between 9:00 and 13:00 hours at ambient temperature (23°+2° C.). Locomotor and head-dipping activity were measured using automated test chambers (Digiscan, OMNITECH Electronics Inc., Columbus, Ohio). The floor of each box contained 4 equally spaced holes (3.5 cm in diameter) through which rat could pop its head. Interruptions of infrared beams (16 of them is located 1.0 cm below and an other […] above the floor level) were automatically recorded by digiscan analyser and then transmitted to a computer and analysed by OASIS softwer. The hole-board testing involved placing a rat in the center of the floor and allowing it to explore for 5 minutes.
At the end of each trial any boluses were removed and the box was thoroughly wiped. Minimum effective doses of the compounds were calculated from the head-dipping activity values.

in vivo = conditions: mouse, NMRI mice, 7 days observation
Method: White mice belonging to the NMRI strain (body weight 20 to 25 g. both male and female) were used, 6 animals for each dose. The test compound was administered orally in a volume of 20 ml/kg, the maximum oral and intraperitoneal doses were 1000 mg/kg and 300 mg/kg, respectively. […] The mice were kept under usual laboratory conditions.

[3] = ip, read-out: LD50 (mg/kg, i.p.)
[4] = po, read-out: LD50 (mg/kg, p.o.)

| SMILES | minimal effective dose (Male Wistar rats) | minimal effective dose [1] | minimal effective dose [2] | LD50 at 168 h (in vivo; [3]) | LD50 at 168 h (in vivo; [4]) | times more effective than diazepam ([1]; elevated plus maze, relative to diazepam) |
| --- | --- | --- | --- | --- | --- | --- |
| CN1C(=O)CN=C(c2ccccc2)c2cc(Cl)ccc21 [Diazepam, reference compound] | 0.1 mg/kg | 2.5 mg/kg | 0.1 mg/kg |  |  |  |
| COc1cc2cc(C)nc(C=Cc3ccc(Cl)cc3)c2cc1OC [Example 2, 1-(4-chlorostyryl)-3-methyl-6,7-dimethoxyisoquinoline] |  |  |  | > 300 mg/kg | > 1000 mg/kg |  |
| FC(F)(F)c1ccc(C=Cc2nccc3cc4c(cc23)OCO4)cc1 [Example 3, 6,7-methylenedioxy-1-[(4-trifluoromethyl)-styryl]-isoquinoline] | 1e-05 mg/kg | 0.1 mg/kg | 0.0001 mg/kg | > 300 mg/kg | > 1000 mg/kg | 25 times |
| COc1cc2cc(C)nc(C=Cc3ccc([N+](=O)[O-])cc3)c2cc1OC [Example 4, 3-methyl-6,7-dimethoxy-1-(4-nitrostyryl)-isoquinoline] | 0.01 mg/kg |  |  | > 300 mg/kg | > 1000 mg/kg |  |
| COc1cc2ccnc(C=Cc3ccc(F)cc3)c2cc1OC [Example 5, 1-(4-fluorostyryl)-6,7-dimethoxyisoquinoline] | 0.0003 mg/kg |  |  | > 300 mg/kg | > 1000 mg/kg |  |
| COc1cc2ccnc(C=Cc3ccc(C(F)(F)F)cc3)c2cc1OC [Example 6, 6,7-dimethoxy-1-[4-(trifluoromethyl)-styryl]-isoquinoline] | 0.01 mg/kg |  | 0.0001 mg/kg | > 300 mg/kg | > 1000 mg/kg |  |
| COc1ccc(C=Cc2nccc3cc(OC)c(OC)cc23)cc1OC [Example 7, 1-(3,4-dimethoxystyryl)-6,7-dimethoxyisoquinoline] |  |  |  | > 300 mg/kg | 1000 mg/kg |  |
| Clc1ccc(C=Cc2nccc3ccccc23)c(Cl)c1 [Example 8, 1-(2,4-dichlorostyryl)-isoquinoline] |  |  |  | > 300 mg/kg | > 1000 mg/kg |  |
| COc1cc2cc(C)nc(C=Cc3ccc(C#N)cc3)c2c(OC)c1OC [Example 9, 1-(4-cyanostyryl)-3-methyl-6,7,8-trimethoxyisoquinoline] | 0.01 mg/kg |  |  | > 300 mg/kg | > 1000 mg/kg |  |
| Cc1cc2cc3c(cc2c(C=Cc2cccc(Br)c2)n1)OCO3 [Example 19, 1-(3-bromostyryl)-3-methyl-6,7-methylenedioxyisoquinoline] |  |  |  | > 300 mg/kg | > 1000 mg/kg |  |
| COc1ccc(C=Cc2nccc3cc4c(cc23)OCO4)cc1OC [Example 20, 1-(3,4-dimethoxystyryl)-6,7-methylenedioxyisoquinoline] |  |  |  | > 300 mg/kg | > 1000 mg/kg |  |
| COc1ccc(C=Cc2nccc3cc(OC)c(OC)cc23)cc1 [Example 21, 6,7-dimethoxy-1-(4-methoxystyryl)-isoquinoline] | 0.03 mg/kg |  | 0.01 mg/kg | > 300 mg/kg | > 1000 mg/kg |  |
